Assay: In vivo formation of NAFB1 and NAHFB1 in rat kidney and liver (HPLC-ESI-MS/MS)
Design: N-acyl-derivative in tissue sample, analysis a / N-acyl-derivative in tissue sample, analysis b / N-acyl-derivative in tissue sample, mean: unit not given here
Settings: 5 days
Text: The study protocol was approved by the Institutional Animal Care and Use Committee, Richard B. Russell Agricultural Research Center, Athens, GA. Male Sprague–Dawley rats (Harlan Industries, Indianapolis, IN, USA), 7 weeks of age at receipt, were individually housed in stainless steel, wire mesh cages in an environmentally controlled room having a 12-h light/dark cycle. Food (2019 Global Rodent Diet, Teklad, Madison, WI, USA) and fresh tap water were provided ad libitum. After a 1 week acclimation period, the animals were randomly assigned to five groups (n = 2/group) having mean weights of 215 to 216 g (weight range of all animals, 211 to 220 g). For five consecutive days, they were observed, weighed, and given an intraperitoneal injection (ip) of 0 (vehicle), 0.5, 1.0, or 2.0 mg/kg body weight FB1 (provided by R. Eppley, US FDA), 1.0 mg/kg body weight HFB1 (positive control) (Voss et al. [2009]), or vehicle (0.9 % physiological saline). These doses corresponded to 0.69, 1.38, and 2.77 μmol FB1/kg body weight and 2.47 μmol/kg body weight HFB1 per day. In order to compare the effects of FB1 and HFB1, dosages will be expressed as molar concentrations and, on this basis, the high dose of FB1 is roughly equivalent to that of the positive control dose of HFB1. Dosing solutions were sterile filtered and administered at a volume rate of 10 ml/kg body weight. The animals were fasted overnight prior to administration of the final dose. The rats were euthanized (CO2 inhalation and exsanguination) 60 to 90 min following the final dose administration and examined by necropsy. The kidney and liver specimens were fixed in 10 % neutral buffered formalin, processed, and microscopically evaluated without knowledge of the animal’s identity or treatment group. Three representative liver and kidney specimens (100 mg each) were also collected, immediately frozen, and stored (−80 °C) until processed, at which time the tissues were thawed and homogenized in distilled/deionized water (1 ml water/100 mg tissue). The homogenates were lyophilized before they were shipped by overnight courier for the analysis of fumonisin metabolites and sphingolipids.
Lyophilized liver and kidney tissues (100 mg wet weight equivalents) were processed for the quantification of FB1, HFB1, NAFB1, NAHFB1, and sphingolipids. Preparation of the tissue samples was performed according to a previously published method (Harrer et al. [2013]). For the quantification of FB1 and HFB1, a d6-labeled derivative of FB1 (FB1-d6) was used as the internal standard. Synthetic derivatives with a heptadecanoic fatty acid (C17:0) residue were used as internal standards for the quantification of N-acyl-fumonisins and ceramides (N-C17:0-FB1, N-C17:0-HFB1, and N-C17:0-ceramide). The sphingoid bases and their phosphate derivatives were quantified using synthetic derivatives with a C17-acyl-backbone: sphingosine (C17:1), sphingosine-1-phosphate (C17:1), sphinganine (C17:0), sphinganine-1-phosphate (C17:0) as internal standards. The standards were dissolved in methanol:chloroform (2:1, v/v) and then mixed with the tissue samples. The samples spiked with internal standard were kept at room temperature for 30 min before being processed further. The internal standard-spiked samples were first extracted with ethyl acetate, isopropanol, and water (60:30:10, v/v/v) and a second time using methanol, chloroform, and water (60:30:10, v/v/v). The extracts were combined, the solvents removed by evaporation, and the dried samples stored at−80 °C till analyzed.
For the analysis, the samples were reconstituted in a mixture of water, methanol, and tetrahydrofurane (60:24:16, v/v/v). The NAFB1 and NAHFB1 derivatives having the following fatty acyl chain lengths were quantified by HPLC-MS/MS: C16:0, C18:0, C20:0, C22:0, C24:0, C26:0. Furthermore, we also quantified the unsaturated derivatives C24:1 and C26:1. The results are given as the sum of all N-acyl derivatives of FB1 or HFB1. […]

[1] = Kidney, treatment FB1 0,5 mg/kg BW ip
[2] = Kidney, treatment FB1 1 mg/kg BW ip
[3] = Kidney, treatment FB1 2 mg/kg BW ip
[4] = Kidney, treatment HFB1 1 mg/kg BW ip
[5] = Liver, treatment FB1 0,5 mg/kg BW ip
[6] = Liver, treatment FB1 1 mg/kg BW ip
[7] = Liver, treatment FB1 2 mg/kg BW ip
[8] = Liver, treatment HFB1 1 mg/kg BW ip

## CCCCCCCCCCCCCCCC(=O)N[C@@H](C)[C@@H](O)C[C@H](O)CCCC[C@@H](O)C[C@H](C)C[C@H](O)[C@H](O)[C@H](C)CCCC [HFB1C16:0]
[1]
  N-acyl-derivative in tissue sample, analysis a: 0,0
  N-acyl-derivative in tissue sample, analysis b: 0,2
  N-acyl-derivative in tissue sample, mean: 0,1
[2]
  N-acyl-derivative in tissue sample, analysis a: 0,2
  N-acyl-derivative in tissue sample, analysis b: 0,1
  N-acyl-derivative in tissue sample, mean: 0,2
[3]
  N-acyl-derivative in tissue sample, analysis a: 0,3
  N-acyl-derivative in tissue sample, analysis b: 0,5
  N-acyl-derivative in tissue sample, mean: 0,4
[4]
  N-acyl-derivative in tissue sample, analysis a: 22,7
  N-acyl-derivative in tissue sample, analysis b: 37,3
  N-acyl-derivative in tissue sample, mean: 30,0
[5]
  N-acyl-derivative in tissue sample, analysis a: 0,3
  N-acyl-derivative in tissue sample, analysis b: 0,4
  N-acyl-derivative in tissue sample, mean: 0,3
[6]
  N-acyl-derivative in tissue sample, analysis a: 0,0
  N-acyl-derivative in tissue sample, analysis b: 0,4
  N-acyl-derivative in tissue sample, mean: 0,2
[7]
  N-acyl-derivative in tissue sample, analysis a: 0,0
  N-acyl-derivative in tissue sample, analysis b: 0,3
  N-acyl-derivative in tissue sample, mean: 0,1
[8]
  N-acyl-derivative in tissue sample, analysis a: 34,9
  N-acyl-derivative in tissue sample, analysis b: 44,3
  N-acyl-derivative in tissue sample, mean: 39,6

## CCCCCCCCCCCCCCCCCCCCCCCC(=O)NC(C)C(O)CC(O)CCCCC(O)CC(C)CC(OC(=O)CC(CC(=O)O)C(=O)O)C(OC(=O)CC(CC(=O)O)C(=O)O)C(C)CCCC (stereo not drawn) [FB1C24:0]
[2]
  N-acyl-derivative in tissue sample, analysis a: 3,0
  N-acyl-derivative in tissue sample, analysis b: 2,4
  N-acyl-derivative in tissue sample, mean: 2,7
[3]
  N-acyl-derivative in tissue sample, analysis a: 5,0
  N-acyl-derivative in tissue sample, analysis b: 4,4
  N-acyl-derivative in tissue sample, mean: 4,7
[4]
  N-acyl-derivative in tissue sample, analysis a: 0,0
  N-acyl-derivative in tissue sample, analysis b: 0,0
  N-acyl-derivative in tissue sample, mean: 0,0
[5]
  N-acyl-derivative in tissue sample, analysis a: 11,7
  N-acyl-derivative in tissue sample, analysis b: 12,3
  N-acyl-derivative in tissue sample, mean: 12,0
[6]
  N-acyl-derivative in tissue sample, analysis a: 2,1
  N-acyl-derivative in tissue sample, analysis b: 7,3
  N-acyl-derivative in tissue sample, mean: 4,7
[7]
  N-acyl-derivative in tissue sample, analysis a: 9,0
  N-acyl-derivative in tissue sample, analysis b: 17,6
  N-acyl-derivative in tissue sample, mean: 13,3
[8]
  N-acyl-derivative in tissue sample, analysis a: 0,0
  N-acyl-derivative in tissue sample, analysis b: 0,0
  N-acyl-derivative in tissue sample, mean: 0,0

## CCCCCCCCC=CCCCCCCCCCCCCCC(=O)NC(C)C(O)CC(O)CCCCC(O)CC(C)CC(OC(=O)CC(CC(=O)O)C(=O)O)C(OC(=O)CC(CC(=O)O)C(=O)O)C(C)CCCC (stereo not drawn) [FB1C24:1]
[1]
  N-acyl-derivative in tissue sample, analysis a: 3,6
  N-acyl-derivative in tissue sample, analysis b: 3,5
  N-acyl-derivative in tissue sample, mean: 3,6
[2]
  N-acyl-derivative in tissue sample, analysis a: 4,1
  N-acyl-derivative in tissue sample, analysis b: 4,6
  N-acyl-derivative in tissue sample, mean: 4,3
[3]
  N-acyl-derivative in tissue sample, analysis a: 5,7
  N-acyl-derivative in tissue sample, analysis b: 4,2
  N-acyl-derivative in tissue sample, mean: 4,9
[4]
  N-acyl-derivative in tissue sample, analysis a: 0,0
  N-acyl-derivative in tissue sample, analysis b: 0,0
  N-acyl-derivative in tissue sample, mean: 0,0
[5]
  N-acyl-derivative in tissue sample, analysis a: 9,2
  N-acyl-derivative in tissue sample, analysis b: 11,8
  N-acyl-derivative in tissue sample, mean: 10,5
[6]
  N-acyl-derivative in tissue sample, analysis a: 3,4
  N-acyl-derivative in tissue sample, analysis b: 6,3
  N-acyl-derivative in tissue sample, mean: 4,9
[7]
  N-acyl-derivative in tissue sample, analysis a: 9,0
  N-acyl-derivative in tissue sample, analysis b: 11,1
  N-acyl-derivative in tissue sample, mean: 10,1
[8]
  N-acyl-derivative in tissue sample, analysis a: 0,0
  N-acyl-derivative in tissue sample, analysis b: 0,0
  N-acyl-derivative in tissue sample, mean: 0,0

## CCCCCCCCCCCCCCCCCCCCCC(=O)NC(C)C(O)CC(O)CCCCC(O)CC(C)CC(OC(=O)CC(CC(=O)O)C(=O)O)C(OC(=O)CC(CC(=O)O)C(=O)O)C(C)CCCC (stereo not drawn) [FB1C22:0]
[1]
  N-acyl-derivative in tissue sample, analysis a: 0,7
  N-acyl-derivative in tissue sample, analysis b: 0,7
  N-acyl-derivative in tissue sample, mean: 0,7
[2]
  N-acyl-derivative in tissue sample, analysis a: 0,9
  N-acyl-derivative in tissue sample, analysis b: 0,6
  N-acyl-derivative in tissue sample, mean: 0,7
[3]
  N-acyl-derivative in tissue sample, analysis a: 0,9
  N-acyl-derivative in tissue sample, analysis b: 1,4
  N-acyl-derivative in tissue sample, mean: 1,2
[4]
  N-acyl-derivative in tissue sample, analysis a: 0,0
  N-acyl-derivative in tissue sample, analysis b: 0,0
  N-acyl-derivative in tissue sample, mean: 0,0
[5]
  N-acyl-derivative in tissue sample, analysis a: 2,9
  N-acyl-derivative in tissue sample, analysis b: 6,4
  N-acyl-derivative in tissue sample, mean: 4,7
[6]
  N-acyl-derivative in tissue sample, analysis a: 1,2
  N-acyl-derivative in tissue sample, analysis b: 4,0
  N-acyl-derivative in tissue sample, mean: 2,6
[7]
  N-acyl-derivative in tissue sample, analysis a: 2,9
  N-acyl-derivative in tissue sample, analysis b: 4,6
  N-acyl-derivative in tissue sample, mean: 3,8
[8]
  N-acyl-derivative in tissue sample, analysis a: 0,0
  N-acyl-derivative in tissue sample, analysis b: 0,0
  N-acyl-derivative in tissue sample, mean: 0,0

— article PMC4298654, “In vivo formation of N-acyl-fumonisin B1” (Mycotoxin Research, 2014)
